{
  "source": "patent US9079866B2",
  "about": "“Flap modulators” (JANSSEN PHARMACEUTICA NV, priority 2013, dated 2015)",
  "key": {"[1]": {"system": "leukotriene pathway in human whole blood (LTB4 levels)", "assay": "Human whole blood assay (A23187-stimulated LTB4)", "assay_type": "cell-based", "conditions": "Homo sapiens, read-out: LTB4 IC50 1:1", "summary_of_the_method": "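Heparinised human whole blood diluted 1:1 in RPMI, pre-incubated 15 min at 37° Celsius with compound, then stimulated with A23187 (7 μg/mL) for 30 min at 37° Celsius. Plasma LTB4 measured by immunoassay kit; IC50 from 4-parameter fit; single replicate per plate, at least one healthy donor.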"}, "human FLAP": {"biological_target": "human FLAP (Homo sapiens (Human), UniProt P20292)", "sequence (P20292 whole entry)": "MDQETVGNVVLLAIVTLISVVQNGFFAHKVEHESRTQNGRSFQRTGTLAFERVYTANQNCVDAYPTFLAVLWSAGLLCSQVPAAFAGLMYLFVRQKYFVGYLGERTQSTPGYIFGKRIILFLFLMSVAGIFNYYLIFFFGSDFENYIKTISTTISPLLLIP", "assay": "FLAP binding assay (HTRF format)", "conditions": "HTRF format", "summary_of_the_method": "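Binding of compounds to FLAP read out as HTRF ratio. Values are the mean of two assay plates, each sample run in duplicate per plate.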"}, "[2]": {"conditions": "human whole blood diluted 1:1, A23187-stimulated"}, "[3]": {"conditions": "human whole blood diluted 1:1 in RPMI, A23187-stimulated LTB4"}, "[4]": {"conditions": "human FLAP wild type, average of two plates, duplicates"}},
  "note": "Read-outs that look alike come from different tables or passages of the source.",
  "data": [
    {"smiles": "N#Cc1cccc(Oc2ccccc2-c2ccc(-c3cnc(N)nc3)c(F)c2)n1", "note": "[Example 618, 6-{[4′-(2-Aminopyrimidin-5-yl)-3′-fluorobiphenyl-2-yl]oxy}pyridine-2-carbonitrile]", "values": [
      {"measurement": "IC50", "setting": "[1]; [2]", "result": 211, "unit": "nM"},
      {"measurement": "Ki", "setting": "human FLAP; wild type FLAP", "result": 14.6, "unit": "nM"}
    ]},
    {"smiles": "N#Cc1cccnc1Oc1ccccc1-c1ccc(-c2cnc(N)cn2)c(F)c1", "note": "[Example 532, 2-{[4′-(5-Aminopyrazin-2-yl)-3′-fluorobiphenyl-2-yl]oxy}pyridine-3-carbonitrile]", "values": [
      {"measurement": "IC50", "setting": "[1]; [2]", "result": 32, "unit": "nM"},
      {"measurement": "Ki", "setting": "human FLAP; wild type FLAP", "result": 6, "unit": "nM"}
    ]},
    {"smiles": "Nc1ncc(-c2ccc(-c3ccccc3S(=O)(=O)CCCn3c(=O)[nH]c4ccccc43)cc2F)cn1", "note": "[Example 318, 1-(3-((4′-(2-Aminopyrimidin-5-yl)-3′-fluoro-[1,1′-biphenyl]-2-yl)sulfonyl)propyl)-1H-benzo[d]imidazol-2(3H)-one]", "values": [
      {"measurement": "IC50", "setting": "[1]; [3]", "result": 2000, "unit": "nM"},
      {"measurement": "Ki", "setting": "human FLAP; [4]", "result": 689, "unit": "nM"}
    ]},
    {"smiles": "CNS(=O)(=O)c1ccccc1-c1ccc(-c2cnc3[nH]cc(CO)c3c2)c(F)c1", "note": "[Example 457, 3′-Fluoro-4′-[3-(hydroxymethyl)-1H-pyrrolo[2,3-b]pyridin-5-yl]-N-methylbiphenyl-2-sulfonamide]", "values": [
      {"measurement": "IC50", "setting": "[1]; [2]", "result": 140, "unit": "nM"},
      {"measurement": "Ki", "setting": "human FLAP; wild type FLAP", "result": 3, "unit": "nM"}
    ]},
    {"smiles": "CNC1CCN(S(=O)(=O)c2ccccc2-c2ccc(-c3cnc(N)cn3)c(F)c2)CC1", "note": "[Example 72, 5-(3-Fluoro-2′-{[4-(methylamino)piperidin-1-yl]sulfonyl}biphenyl-4-yl)pyrazin-2-amine]", "values": [
      {"measurement": "IC50", "setting": "[1]; [3]", "result": 168, "unit": "nM"},
      {"measurement": "Ki", "setting": "human FLAP; [4]", "result": 111, "unit": "nM"}
    ]},
    {"smiles": "CC(C)[C@H](CO)NS(=O)(=O)c1ccccc1-c1ccc(-c2cnc(N)cn2)c(F)c1", "note": "[Example 109, (R)-4′-(5-Aminopyrazin-2-yl)-3′-fluoro-N-[1-(hydroxymethyl)-2-methylpropyl]biphenyl-2-sulfonamide]", "values": [
      {"measurement": "IC50", "setting": "[1]; [3]", "result": 18, "unit": "nM"},
      {"measurement": "Ki", "setting": "human FLAP; [4]", "result": 1, "unit": "nM"}
    ]},
    {"smiles": "Nc1cnc(-c2ccc(-c3ccccc3Oc3ccnc(N)c3)cc2F)cn1", "note": "[Example 638, 5-{2′-[(2-Aminopyridin-4-yl)oxy]-3-fluorobiphenyl-4-yl}pyrazin-2-amine]", "values": [
      {"measurement": "IC50", "setting": "[1]; [2]", "result": 14.8, "unit": "nM"},
      {"measurement": "Ki", "setting": "human FLAP; wild type FLAP", "result": 1.4, "unit": "nM"}
    ]},
    {"smiles": "CS(=O)(=O)Nc1ccccc1-c1ccc(-c2cnc3[nH]ccc3n2)c(F)c1", "note": "[Example 369, N-[3′-Fluoro-4′-(5H-pyrrolo[2,3-b]pyrazin-2-yl)biphenyl-2-yl]methanesulfonamide]", "values": [
      {"measurement": "IC50", "setting": "[1]; [3]", "result": 375, "unit": "nM"},
      {"measurement": "Ki", "setting": "human FLAP; [4]", "result": 17, "unit": "nM"}
    ]},
    {"smiles": "Nc1cnc(-c2ccc(-c3ccccc3S(=O)(=O)N3C[C@@H]4C(N)[C@@H]4C3)cc2F)cn1", "note": "(stereo partly drawn) [Example 143, endo-3-((4′-(5-Aminopyrazin-2-yl)-3′-fluoro-[1,1′-biphenyl]-2-yl)sulfonyl)-3-azabicyclo[3.1.0]hexan-6-amine]", "values": [
      {"measurement": "IC50", "setting": "[1]; [3]", "result": 49, "unit": "nM"},
      {"measurement": "Ki", "setting": "human FLAP; [4]", "result": 8, "unit": "nM"}
    ]},
    {"smiles": "CC(C)N(CCO)S(=O)(=O)c1ccccc1-c1ccc(-c2cnc(N)nc2)c(F)c1", "note": "[Example 261, 4′-(2-Aminopyrimidin-5-yl)-3′-fluoro-N-(2-hydroxyethyl)-N-(1-methylethyl)biphenyl-2-sulfonamide]", "values": [
      {"measurement": "IC50", "setting": "[1]; [3]", "result": 75, "unit": "nM"},
      {"measurement": "Ki", "setting": "human FLAP; [4]", "result": 6, "unit": "nM"}
    ]},
    {"smiles": "Nc1cnc(-c2ccc(-c3ccc(C(F)(F)F)cc3C(=O)N3CCOCC3)cc2F)cn1", "note": "[Example 521, 5-[3-Fluoro-2′-(morpholin-4-ylcarbonyl)-4′-(trifluoromethyl)biphenyl-4-yl]pyrazin-2-amine]", "values": [
      {"measurement": "IC50", "setting": "[1]; [2]", "result": 13, "unit": "nM"},
      {"measurement": "Ki", "setting": "human FLAP; wild type FLAP", "result": 5, "unit": "nM"}
    ]},
    {"smiles": "CC(C)(C)NS(=O)(=O)c1ccccc1-c1ccc(-c2coc(N)n2)c(F)c1", "note": "[Example 576, 4′-(2-Amino-1,3-oxazol-4-yl)-N-tert-butyl-3′-fluorobiphenyl-2-sulfonamide]", "values": [
      {"measurement": "IC50", "setting": "[1]; [2]", "result": 116, "unit": "nM"},
      {"measurement": "Ki", "setting": "human FLAP; wild type FLAP", "result": 8, "unit": "nM"}
    ]},
    {"smiles": "CC(C)(O)CNS(=O)(=O)c1ccccc1-c1ccc(-c2cnc(N)cn2)c(F)c1", "note": "[Example 101, 4′-(5-Aminopyrazin-2-yl)-3′-fluoro-N-(2-hydroxy-2-methylpropyl)biphenyl-2-sulfonamide]", "values": [
      {"measurement": "IC50", "setting": "[1]; [3]", "result": 14, "unit": "nM"},
      {"measurement": "Ki", "setting": "human FLAP; [4]", "result": 2, "unit": "nM"}
    ]},
    {"smiles": "NC(=O)C1(S(=O)(=O)c2ccccc2-c2ccc(-c3cnc(N)cn3)c(F)c2)CCCC1", "note": "[Example 731, 1-{[4′-(5-Aminopyrazin-2-yl)-3′-fluorobiphenyl-2-yl]sulfonyl}cyclopentanecarboxamide]", "values": [
      {"measurement": "IC50", "setting": "[1]; [2]", "result": 51.3, "unit": "nM"},
      {"measurement": "Ki", "setting": "human FLAP; wild type FLAP", "result": 14.7, "unit": "nM"}
    ]}
  ]
}
